Measurements as given in PMC5505648 (Bioorganic & medicinal chemistry, 2017).

Experiments:
[1] = Ester-to-amide; type: physicochemical; conditions: for Rearrangement of ester to amide in dosing vehicle: 50% DMSO in saline; for Rearrangement of ester to amide product: polar, protic solvents / aqueous HPLC conditions
[2] = Oral bioavailability / serum pharmacokinetics study in mice; type: in vivo; conditions: C57Bl/6, mouse; for clearance: iv
[3] = system: Hairless (Hr) gene; test: Brain expression of Hairless; type: in vivo; conditions: mice, brain Hr expression ED50
[4] = in vivo

For Cc1cc(OCC(=O)OC(CN)C(C)C)cc(C)c1Cc1ccc(O)c(C(C)C)c1 (centres unmarked) [Compound 11, 1-amino-3-methylbutan-2-yl 2-(4-(4-hydroxy-3-isopropylbenzyl)-3,5-dimethylphenoxy)acetate], the “Rearrangement of ester to amide in dosing vehicle” value (from here on “Rearrangement … in dosing vehicle”) [1] was “do not rearrange to amides” and the “Rearrangement of ester to amide product” value [1] was “did not display rearrangement to the amide product”.
In the case of CNCC(C)OC(=O)COc1cc(C)c(Cc2ccc(O)c(C(C)C)c2)c(C)c1 (centres unmarked) [Compound 7, 1-(methylamino) propan-2-yl 2-(4-(4-hydroxy-3-isopropylbenzyl)-3,5-dimethylphenoxy) acetate], the “Rearrangement of ester to amide product” value [1] is reported as “freely rearrange to their corresponding tertiary amides”.
Work on Cc1cc(OCC(=O)O)cc(C)c1Cc1ccc(O)c(C(C)C)c1 [Compound 1, Sobetirome, reference compound] yielded a clearance ([2]; serum, 3.05 μmol/kg) of 8 mL/min/kg.
For Cc1cc(OCC(=O)OC2(C(F)(F)F)CNC2)cc(C)c1Cc1ccc(O)c(C(C)C)c1 [Compound 15], the “Rearrangement … in dosing vehicle” value [1] was “do not rearrange to amides” and the “Rearrangement of ester to amide product” value [1] was “did not display rearrangement to the amide product”.
With Cc1cc(OCC(=O)O[C@@H](C)CN)cc(C)c1Cc1ccc(O)c(C(C)C)c1 [Compound 3, (S)-1-aminopropan-2-yl 2-(4-(4-hydroxy-3-isopropylbenzyl)-3,5-dimethylphenoxy)acetate] the “Species in chromatogram on re-sampling the same solution” value ([1]; aqueous HPLC sample, approximately 30 minutes later) was “showed only the amide 3b”, the “Fraction of ester converted to amide” value ([1]; aqueous HPLC sample/run conditions, within 5 minutes of running) was “approximately 25%” and the “Amount of sobetirome from cleavage of 3 in blood, oral vs intravenous dosing” value ([2]; in vivo) was 2.4 fold. The clearance ([2]; in vivo) was 28 mL/min/kg, the “Fold increase in potency compared to sobetirome” value [3] was about 2 fold and the “Fold increase of sobetirome exposure (AUC) in brain vs equimolar sobetirome” value ([4]; male, C57Bl/6, mouse) was ~ 2 fold. For the same compound, the “Fold reduction of parent drug exposure in heart vs equimolar sobetirome” value ([4]; male, C57Bl/6, mouse) was ~ 3 fold, the “Fold reduction of parent drug exposure in kidney vs equimolar sobetirome” value ([4]; male, C57Bl/6, mouse) was ~ 2 fold and the “Fold reduction of parent drug exposure in liver vs equimolar sobetirome” value ([4]; male, C57Bl/6, mouse) was ~ 2 fold. For the same compound, the “Fold reduction of parent drug exposure in serum vs equimolar sobetirome” value ([4]; male, C57Bl/6, mouse) was ~ 3.5 fold and the “Time of Cmax / Tmax in all tissues analyzed” value ([4]; mouse, ip) was 15 to 30 min.
In the case of “2-(methylamino)ethyl 2-(4-(4-hydroxy-3-methylbenzyl)-3,5-dimethylphenoxy)acetate [Compound 13]”, the “Rearrangement of ester to amide product” value [1] is reported as “freely rearrange to their corresponding tertiary amides”.
In the case of CNCC(OC(=O)COc1cc(C)c(Cc2ccc(O)c(C(C)C)c2)c(C)c1)C(C)C (centres unmarked) [Compound 12, 3-methyl-1-(methylamino)butan-2-yl 2-(4-(4-hydroxy-3-isopropylbenzyl)-3,5-dimethylphenoxy)acetate], the “Rearrangement … in dosing vehicle” value [1] is reported as “do not rearrange to amides” and the “Rearrangement of ester to amide product” value [1] is reported as “did not display rearrangement to the amide product”.
